Results: PMC2748165 (Biochemical pharmacology, 2009)

What was measured:
[1] = target: T1, P-gp (Homo sapiens, UniProt P08183); assay: Inhibition of [3H]-paclitaxel uptake by placental inside-out vesicles
[2] = target: T1, P-gp; assay: in vitro
[3] = dual perfusion of human placental lobule; cited from earlier work
[4] = tested on: P-gp of CEM leukemia cells; conditions: cited from earlier work
[5] = target: T1, P-gp; type: biochemical
[6] = placental IOVs 0.05 mg/mL, 20–500 nM [3H] paclitaxel, n = 10, mean ± SEM

T1 sequence (P08183 whole entry): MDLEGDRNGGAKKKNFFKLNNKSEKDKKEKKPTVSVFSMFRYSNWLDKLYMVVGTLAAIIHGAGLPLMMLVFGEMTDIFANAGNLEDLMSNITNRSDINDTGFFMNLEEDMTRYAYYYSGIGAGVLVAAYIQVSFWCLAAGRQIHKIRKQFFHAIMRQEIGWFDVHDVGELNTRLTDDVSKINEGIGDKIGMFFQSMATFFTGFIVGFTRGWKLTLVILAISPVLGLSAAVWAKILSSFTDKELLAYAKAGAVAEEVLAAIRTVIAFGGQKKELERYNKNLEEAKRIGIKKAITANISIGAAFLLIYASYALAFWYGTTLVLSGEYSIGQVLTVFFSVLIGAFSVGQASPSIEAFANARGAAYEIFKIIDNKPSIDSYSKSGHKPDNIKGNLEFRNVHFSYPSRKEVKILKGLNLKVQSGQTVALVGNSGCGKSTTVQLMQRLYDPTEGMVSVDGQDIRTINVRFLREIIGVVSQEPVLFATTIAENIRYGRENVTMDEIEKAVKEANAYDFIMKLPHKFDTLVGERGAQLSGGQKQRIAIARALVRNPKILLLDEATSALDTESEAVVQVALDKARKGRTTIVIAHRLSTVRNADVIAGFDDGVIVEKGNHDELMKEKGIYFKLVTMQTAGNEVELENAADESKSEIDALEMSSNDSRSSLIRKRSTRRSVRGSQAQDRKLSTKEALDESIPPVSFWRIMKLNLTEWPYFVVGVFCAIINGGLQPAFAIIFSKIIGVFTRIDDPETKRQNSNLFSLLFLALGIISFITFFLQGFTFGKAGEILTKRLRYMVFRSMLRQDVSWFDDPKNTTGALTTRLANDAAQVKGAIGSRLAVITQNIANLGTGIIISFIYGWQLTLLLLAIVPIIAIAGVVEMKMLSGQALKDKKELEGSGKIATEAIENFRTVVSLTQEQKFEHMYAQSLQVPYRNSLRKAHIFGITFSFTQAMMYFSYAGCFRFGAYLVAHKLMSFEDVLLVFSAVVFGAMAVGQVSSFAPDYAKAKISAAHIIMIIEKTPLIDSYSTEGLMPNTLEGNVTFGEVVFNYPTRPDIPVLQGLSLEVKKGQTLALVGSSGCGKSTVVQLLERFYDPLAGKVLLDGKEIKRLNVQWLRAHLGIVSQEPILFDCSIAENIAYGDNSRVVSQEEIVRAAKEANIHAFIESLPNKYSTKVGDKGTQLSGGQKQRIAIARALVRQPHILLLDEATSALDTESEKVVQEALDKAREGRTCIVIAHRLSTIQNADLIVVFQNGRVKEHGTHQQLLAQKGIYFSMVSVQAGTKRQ

In the case of `COc1ccc(CCN(C)CCCC(C#N)(c2ccc(OC)c(OC)c2)C(C)C)cc1OC` (stereo not drawn) [verapamil], the inhibition at 1 min, 2 mM [1] is reported as 99 ± 9%.
For `CCC(=O)C(CC(C)N(C)C)(c1ccccc1)c1ccccc1` (stereo not drawn) [methadone], the inhibition at 1 min [2] is listed as 60% and the “rate of transfer from the maternal to fetal circuit” value [3] is listed as 29.4 ± 4.6%.
For `CC(=O)O[C@H]1C(=O)[C@@]2(C)[C@H]([C@H](OC(=O)c3ccccc3)[C@]3(O)C[C@H](OC(=O)[C@H](O)[C@@H](NC(=O)c4ccccc4)c4ccccc4)C(C)=C1C3(C)C)[C@]1(OC(C)=O)CO[C@@H]1C[C@@H]2O` [paclitaxel], the “apparent Kt of paclitaxel transport, CEM cells overexpressing P-gp” value ([4]; cells passaged in vinblastine, multidrug resistant, overexpressing P-gp) is listed as 63 ± 46 nM, the “Kt of paclitaxel transport, parental CEM cells” value ([4]; parental cells) is listed as 144 ± 56 nM and the “ATP dependent uptake of [3H]-paclitaxel into IOVs, mean” value ([5]; 200 individual placentas, mean) is listed as 23 pmol*mg protein^−1min^−1. For the same compound, the “ATP dependent uptake of [3H]-paclitaxel into IOVs, range” value ([5]; 200 individual placentas, range) was 1–140 pmol*mg protein^−1min^−1, the “Vmax of ATP-dependent [3H] paclitaxel uptake” value [5, 6] was 20 ± 3 pmol*mg protein^−1min^−1 and the “apparent Kt of ATP-dependent [3H] paclitaxel uptake” value [5, 6] was 66 ± 38 nM.
